Laboratory results as given in PubChem BioAssay (NCI).
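Briefly, cells in 96-well plates were exposed to five compound concentrations for 48 h, and endpoints were estimated by linear interpolation. The concentration for full growth arrest is given as TGI.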

Experiments:
Test in all cases: NCI anticancer screen, dose series, 48 h
A549 NSCLC = test system: A549 NSCLC
SW-620 colon = test system: SW-620 colon
CAKI-1 renal = test system: CAKI-1 renal
HCT-116 colon = test system: HCT-116 colon
RXF-631 renal = test system: RXF-631 renal
NCI-H460 lung = test system: NCI-H460 lung
XF 498 CNS = test system: XF 498 CNS
HT29 colon = test system: HT29 colon
HOP-92 NSCLC = test system: HOP-92 NSCLC
KM12 colon = test system: KM12 colon
UO-31 renal = test system: UO-31 renal
DMS 114 small cell lung = test system: DMS 114 small cell lung
MALME-3M melanoma = test system: MALME-3M melanoma
SNB-19 CNS = test system: SNB-19 CNS
CCRF-CEM leukemia = test system: CCRF-CEM leukemia
OVCAR-4 ovarian = test system: OVCAR-4 ovarian
SF-268 CNS = test system: SF-268 CNS
HL-60(TB) leukemia = test system: HL-60(TB) leukemia
NCI-H23 lung = test system: NCI-H23 lung
UACC-257 melanoma = test system: UACC-257 melanoma
SK-OV-3 ovarian = test system: SK-OV-3 ovarian
HCT-15 colon = test system: HCT-15 colon
HOP-62 NSCLC = test system: HOP-62 NSCLC
786-0 renal = test system: 786-0 renal
UACC-62 melanoma = test system: UACC-62 melanoma
MOLT-4 leukemia = test system: MOLT-4 leukemia
K-562 leukemia = test system: K-562 leukemia
ACHN renal = test system: ACHN renal
IGROV1 ovarian = test system: IGROV1 ovarian
DLD-1 colon = test system: DLD-1 colon
SNB-75 CNS = test system: SNB-75 CNS
COLO 205 colon = test system: COLO 205 colon
KM20L2 colon = test system: KM20L2 colon
A498 renal = test system: A498 renal
OVCAR-8 ovarian = test system: OVCAR-8 ovarian
OVCAR-5 ovarian = test system: OVCAR-5 ovarian
EKVX NSCLC = test system: EKVX NSCLC
SK-MEL-2 melanoma = test system: SK-MEL-2 melanoma
SF-539 CNS = test system: SF-539 CNS
SR leukemia = test system: SR leukemia
HCC-2998 colon = test system: HCC-2998 colon
NCI-H226 lung = test system: NCI-H226 lung
TK-10 renal = test system: TK-10 renal
HOP-18 NSCLC = test system: HOP-18 NSCLC
SN12C renal = test system: SN12C renal
OVCAR-3 ovarian = test system: OVCAR-3 ovarian
SF-295 CNS = test system: SF-295 CNS
M14 melanoma = test system: M14 melanoma
U251 CNS = test system: U251 CNS
SK-MEL-5 melanoma = test system: SK-MEL-5 melanoma
RXF 393 renal = test system: RXF 393 renal
DMS 273 small cell lung = test system: DMS 273 small cell lung
RPMI-8226 leukemia = test system: RPMI-8226 leukemia
LXFL 529 NSCLC = test system: LXFL 529 NSCLC
SNB-78 CNS = test system: SNB-78 CNS
M19-MEL melanoma = test system: M19-MEL melanoma
LOX IMVI melanoma = test system: LOX IMVI melanoma

## N#CN1CC[C@@H]2CC3(CCC2C1)OCCO3 (stereo partly drawn)
A549 NSCLC
  TGI: > 100 µM
SW-620 colon
  TGI: > 100 µM
CAKI-1 renal
  TGI: > 100 µM
HCT-116 colon
  TGI: > 100 µM
RXF-631 renal
  TGI: > 100 µM
NCI-H460 lung
  TGI: > 100 µM
XF 498 CNS
  TGI: > 100 µM
HT29 colon
  TGI: > 100 µM
HOP-92 NSCLC
  TGI: > 100 µM
KM12 colon
  TGI: > 100 µM
UO-31 renal
  TGI: > 100 µM
DMS 114 small cell lung
  TGI: > 100 µM
MALME-3M melanoma
  TGI: > 100 µM
SNB-19 CNS
  TGI: > 100 µM
CCRF-CEM leukemia
  TGI: > 100 µM
OVCAR-4 ovarian
  TGI: > 100 µM
SF-268 CNS
  TGI: > 100 µM
HL-60(TB) leukemia
  TGI: > 100 µM
NCI-H23 lung
  TGI: > 100 µM
UACC-257 melanoma
  TGI: > 100 µM
SK-OV-3 ovarian
  TGI: > 100 µM
HCT-15 colon
  TGI: > 100 µM
HOP-62 NSCLC
  TGI: > 100 µM
786-0 renal
  TGI: > 100 µM
UACC-62 melanoma
  TGI: > 100 µM
MOLT-4 leukemia
  TGI: > 100 µM
K-562 leukemia
  TGI: > 100 µM
ACHN renal
  TGI: > 100 µM
IGROV1 ovarian
  TGI: > 100 µM
DLD-1 colon
  TGI: > 100 µM
SNB-75 CNS
  TGI: > 100 µM
COLO 205 colon
  TGI: > 100 µM
KM20L2 colon
  TGI: > 100 µM
A498 renal
  TGI: > 100 µM
OVCAR-8 ovarian
  TGI: > 100 µM
OVCAR-5 ovarian
  TGI: > 100 µM
EKVX NSCLC
  TGI: > 100 µM
SK-MEL-2 melanoma
  TGI: > 100 µM
SF-539 CNS
  TGI: > 100 µM
SR leukemia
  TGI: > 100 µM
HCC-2998 colon
  TGI: > 100 µM
NCI-H226 lung
  TGI: > 100 µM
TK-10 renal
  TGI: > 100 µM
HOP-18 NSCLC
  TGI: > 100 µM
SN12C renal
  TGI: > 100 µM
OVCAR-3 ovarian
  TGI: > 100 µM
SF-295 CNS
  TGI: > 100 µM
M14 melanoma
  TGI: > 100 µM
U251 CNS
  TGI: > 100 µM
SK-MEL-5 melanoma
  TGI: > 100 µM
RXF 393 renal
  TGI: > 100 µM
DMS 273 small cell lung
  TGI: > 100 µM
RPMI-8226 leukemia
  TGI: > 100 µM
LXFL 529 NSCLC
  TGI: > 100 µM
SNB-78 CNS
  TGI: > 100 µM
M19-MEL melanoma
  TGI: > 100 µM

## O=C(NCCCN1CCN(CCCNC(=O)c2cccc3ccccc23)CC1)c1cccc2ccccc12
A549 NSCLC
  TGI: > 100 µM
SW-620 colon
  TGI: > 100 µM
CAKI-1 renal
  TGI: > 100 µM
HCT-116 colon
  TGI: > 100 µM
RXF-631 renal
  TGI: > 100 µM
NCI-H460 lung
  TGI: > 100 µM
XF 498 CNS
  TGI: 93.9 µM
HT29 colon
  TGI: > 100 µM
HOP-92 NSCLC
  TGI: 21.3 µM
KM12 colon
  TGI: > 100 µM
UO-31 renal
  TGI: > 100 µM
DMS 114 small cell lung
  TGI: > 100 µM
MALME-3M melanoma
  TGI: > 100 µM
SNB-19 CNS
  TGI: > 100 µM
CCRF-CEM leukemia
  TGI: > 100 µM
OVCAR-4 ovarian
  TGI: > 100 µM
HL-60(TB) leukemia
  TGI: > 100 µM
NCI-H23 lung
  TGI: > 100 µM
UACC-257 melanoma
  TGI: > 100 µM
SK-OV-3 ovarian
  TGI: 57.6 µM
HCT-15 colon
  TGI: > 100 µM
HOP-62 NSCLC
  TGI: > 100 µM
786-0 renal
  TGI: > 100 µM
UACC-62 melanoma
  TGI: > 100 µM
MOLT-4 leukemia
  TGI: > 100 µM
LOX IMVI melanoma
  TGI: > 100 µM
K-562 leukemia
  TGI: > 100 µM
ACHN renal
  TGI: > 100 µM
IGROV1 ovarian
  TGI: > 100 µM
SNB-75 CNS
  TGI: 41.7 µM
COLO 205 colon
  TGI: > 100 µM
KM20L2 colon
  TGI: 73.5 µM
A498 renal
  TGI: > 100 µM
OVCAR-8 ovarian
  TGI: > 100 µM
OVCAR-5 ovarian
  TGI: > 100 µM
EKVX NSCLC
  TGI: > 100 µM
SK-MEL-2 melanoma
  TGI: > 100 µM
SF-539 CNS
  TGI: > 100 µM
HCC-2998 colon
  TGI: > 100 µM
NCI-H226 lung
  TGI: > 100 µM
TK-10 renal
  TGI: > 100 µM
HOP-18 NSCLC
  TGI: > 100 µM
SN12C renal
  TGI: > 100 µM
OVCAR-3 ovarian
  TGI: > 100 µM
SF-295 CNS
  TGI: > 100 µM
M14 melanoma
  TGI: > 100 µM
U251 CNS
  TGI: > 100 µM
SK-MEL-5 melanoma
  TGI: > 100 µM
RPMI-8226 leukemia
  TGI: > 100 µM
LXFL 529 NSCLC
  TGI: > 100 µM
SNB-78 CNS
  TGI: > 100 µM
M19-MEL melanoma
  TGI: > 100 µM
